Experimental findings from the OligoGym collection are described below.

Values joined by “and” are separate entries in the source; they are usually repeats but may differ in a detail not shown here. Equal values may be shown once. After the bases stand the sugars from the 5' end (letter, count) and the backbone: PS all phosphorothioate, else s phosphorothioate and o phosphodiester by linkage. Methylation of C is not given here. l = locked nucleic acid (LNA); d = 2'-deoxy (DNA)

For one data set, the target named is MYH7. The settings on record: ASO, CC-2580, 5 µM.
A further data set addresses HTRA1. The following applies: ASO, U251, 5 µM.
For a further data set, the target named is ANGPTL2. The following applies: ASO.

For “CAGCTTGGCGATGATCT (sugars lddllddlddddddlll, PS)”, the target mRNA inhibition in the data set with MYH7 was 15% and -9%.

For “CAGCTTGGCGATGATCT (sugars lldllddddddldddll, PS)”, the target mRNA inhibition in the data set with MYH7 is 45% and 31%.

Regarding “CAGCTTGGCGATGATCT (sugars lddlldddddddlldll, PS)”, the target mRNA inhibition with MYH7 was 38% and 22%.

On to “TTCTTCTATCTACGCAT (sugars l4 d10 l3, PS)”, for which, in the data set with HTRA1, the target mRNA inhibition was determined as 85%.

As to “CAGCTTGGCGATGATCT (sugars lddlldddlldddddll, PS)”, the target mRNA inhibition with MYH7 is 36% and 19%.

As to TTGTATCGACTGCATT (sugars l3 d9 l4, PS), the target mRNA inhibition with HTRA1 was determined as 93%.

Take “CAGCTTGGCGATGATCT (sugars lddlddddddllddlll, PS)”: the target mRNA inhibition with MYH7 was 16% and 14%.

For “CAGCTTGGCGATGATCT (sugars l3 d2 l1 d9 l2, PS)”, the target mRNA inhibition with MYH7 is 75% and 59%.

For “CTTGGCAATGATCTCATCC (sugars lddddddlddldlddddll, PS)”, the target mRNA inhibition with MYH7 is 45% and 29%.

On to “CAGCTTGGCGATGATCT (sugars lddldldddddldldll, PS)”, for which the target mRNA inhibition with MYH7 was -1% and -24%.

GCAATGTGTAAGAAGT (sugars l3 d10 l3, PS): the target mRNA inhibition with HTRA1 came to 85%.

Take “TCAGCTTGGCGATGATCT (sugars lddldlldlddddddlll, PS)”: the target mRNA inhibition with MYH7 is 36% and 34%.

As to “CAGCTTGGCGATGATCT (sugars l2 d9 l1 d3 l2, PS)”, in the data set with MYH7, the target mRNA inhibition is 60% and 37%.

Regarding “CTTGGCAATGATCTCATCC (sugars l2 d1 l1 d11 l4, PS)”, the target mRNA inhibition with MYH7 was 81% and 60%.

“CAGCTTGGCGATGATCT (sugars lllddlddddddlddll, PS)”: in the data set with MYH7, the target mRNA inhibition was 25% and 0%.

On to “CTTGGCAATGATCTCATCC (sugars lddddddlddlldldldll, PS)”, for which the target mRNA inhibition with MYH7 was 18% and -7%.

As to “TCAGCTTGGCGATGATCT (sugars lddldlddddddldldll, PS)”, in the data set with MYH7, the target mRNA inhibition is 4% and -7%.

On to ATCGACTGCATTAGTT (sugars l4 d9 l3, PS), for which the target mRNA inhibition with HTRA1 turned out to be 63%.

As for “TCAGCTTGGCGATGATCT (sugars l2 d8 l1 d3 l4, PS)”, the target mRNA inhibition in the data set with MYH7 is 48% and 46%.

With “CTTGGCAATGATCTCATCC (sugars llddlddddddldldldll, PS)”, the target mRNA inhibition with MYH7 was -25% and -43%.

For the sequence “AGAAGTACTTTAATAGCTC (sugars l4 d12 l3, PS)”, the target mRNA inhibition with HTRA1 came to 84%.

Take “CTTCTTCTATCTACGCAT (sugars l4 d12 l2, PS)”: the target mRNA inhibition in the data set with HTRA1 worked out at 86%.

Take “CAGCTTGGCGATGATCT (sugars lddldddddddlddlll, PS)”: in the data set with MYH7, the target mRNA inhibition was 3% and -1%.

Consider “CAGCTTGGCGATGATCT (sugars lddlddddddddldlll, PS)”, for which, in the data set with MYH7, the target mRNA inhibition was 48% and 26%.

“CTTGGCAATGATCTCATCC (sugars lldddddddlddlddldll, PS)”: the target mRNA inhibition in the data set with MYH7 is 59% and 36%.

Turning to “CAGCTTGGCGATGATCT (sugars ldldllddddddlddll, PS)”, the target mRNA inhibition in the data set with MYH7 is 31% and 17%.

For the sequence “CTTGGCAATGATCTCATCC (sugars ldldlddddddlddlddll, PS)”, the target mRNA inhibition with MYH7 was -4% and -29%.

Consider “CAGCTTGGCGATGATCT (sugars lldddddddllddldll, PS)”, for which, in the data set with MYH7, the target mRNA inhibition is 17% and 3%.

As for “CTTGGCAATGATCTCATCC (sugars lddddddddlddddlldll, PS)”, the target mRNA inhibition in the data set with MYH7 was 45% and 31%.

In the case of “TCAGCTTGGCGATGATCT (sugars l2 d10 l1 d2 l3, PS)”, the target mRNA inhibition with MYH7 was 67% and 55%.

Consider “TCAGCTTGGCGATGATCT (sugars l2 d8 l1 d4 l3, PS)”, for which, in the data set with MYH7, the target mRNA inhibition was 39% and 27%.

With “CTTGGCAATGATCTCATCC (sugars lddddddlddddlddddll, PS)”, in the data set with MYH7, the target mRNA inhibition was 41% and 19%.

Regarding “CAGCTTGGCGATGATCT (sugars llddddddddlddldll, PS)”, the target mRNA inhibition with MYH7 is 37% and 33%.

For the sequence “CTTGGCAATGATCTCATCC (sugars ldddldddddddlddldll, PS)”, in the data set with MYH7, the target mRNA inhibition was 22% and 3%.

For “CAGCTTGGCGATGATCT (sugars lddlddddlldddddll, PS)”, in the data set with MYH7, the target mRNA inhibition was 0% and -24%.

For the sequence “CTTGGCAATGATCTCATCC (sugars ldddddddlddldldldll, PS)”, the target mRNA inhibition with MYH7 is 37% and 12%.

For “CAGCTTGGCGATGATCT (sugars lddlddddlddddddll, PS)”, the target mRNA inhibition with MYH7 is 34% and 17%.

Regarding “CAGCTTGGCGATGATCT (sugars lddlddddddlddllll, PS)”, the target mRNA inhibition with MYH7 was 29% and 23%.

For the sequence “TCAGCTTGGCGATGATCT (sugars lddldddddddlldldll, PS)”, the target mRNA inhibition in the data set with MYH7 was 14% and 8%.

As for “TCAGCTTGGCGATGATCT (sugars llddlddddddlddldll, PS)”, the target mRNA inhibition in the data set with MYH7 is -37% and -45%.

With “CTTGGCAATGATCTCATCC (sugars lddldddddddldllddll, PS)”, the target mRNA inhibition in the data set with MYH7 is 56% and 39%.

Turning to “TCAGCTTGGCGATGATCT (sugars llddlddddddddldlll, PS)”, the target mRNA inhibition in the data set with MYH7 was 51% and 37%.

Consider “TCAGCTTGGCGATGATCT (sugars lddldllddlddddddll, PS)”, for which the target mRNA inhibition in the data set with MYH7 is 16% and -2%.

On to “CTTGGCAATGATCTCATCC (sugars ldddddllddddlddldll, PS)”, for which, in the data set with MYH7, the target mRNA inhibition is 24% and 0%.

In the case of “TCAGCTTGGCGATGATCT (sugars l2 d5 l1 d6 l4, PS)”, the target mRNA inhibition with MYH7 was 72% and 49%.

As for “CTTGGCAATGATCTCATCC (sugars lldddddddlddddldlll, PS)”, the target mRNA inhibition in the data set with MYH7 is 67% and 43%.

Consider “CTTGGCAATGATCTCATCC (sugars ldddddlddlddlddldll, PS)”, for which the target mRNA inhibition with MYH7 was -6% and -21%.

For the sequence “CAGCTTGGCGATGATCT (sugars lldlddddddlldddll, PS)”, in the data set with MYH7, the target mRNA inhibition is 24% and 13%.

For the sequence “CAGCTTGGCGATGATCT (sugars ldlldddddddldddll, PS)”, the target mRNA inhibition in the data set with MYH7 was 38% and 20%.

In the case of “TCAGCTTGGCGATGATCT (sugars lddldddddddldlddll, PS)”, the target mRNA inhibition with MYH7 was 37% and 32%.

For “TCAGCTTGGCGATGATCT (sugars l2 d10 l1 d1 l4, PS)”, the target mRNA inhibition with MYH7 was 46% and 45%.

With “CAGCTTGGCGATGATCT (sugars lddlddddddlldldll, PS)”, the target mRNA inhibition with MYH7 was 18% and 5%.

Turning to “CAGCTTGGCGATGATCT (sugars ldldldldlddddddll, PS)”, in the data set with MYH7, the target mRNA inhibition was -17% and -15%.

With “TCAGCTTGGCGATGATCT (sugars l2 d13 l3, PS)”, in the data set with MYH7, the target mRNA inhibition was 64% and 40%.

As to “CTGGTTGATGATGCGGTTG (sugars l1 d16 l2, PS)”, the figures for the target mRNA inhibition with ANGPTL2 (5 µM) and with ANGPTL2 (25 µM) were 52.7% and 60.5%, respectively.

For “ACTTCTATTCTTGGACC (sugars l2 d13 l2, PS)”, the target mRNA inhibition is 47.8% with ANGPTL2 (5 µM) and 55.7% with ANGPTL2 (25 µM).

On to “CAGCTTGGCGATGATCT (sugars lddldddddddllddll, PS)”, for which the target mRNA inhibition with MYH7 was -2% and -12%.

On to “TCAGCTTGGCGATGATCT (sugars ldldlldldddddddlll, PS)”, for which the target mRNA inhibition in the data set with MYH7 was 35% and 16%.

Consider “CAGCTTGGCGATGATCT (sugars ldldldddddddlddll, PS)”, for which, in the data set with MYH7, the target mRNA inhibition was 21% and 3%.

With “TAGCAGATGGGGCACAA (sugars l1 d12 l4, PS)”, the target mRNA inhibition in the data set with ANGPTL2 (5 µM) came out at 22.9%; with ANGPTL2 (25 µM), 12.4%.

On to “CAGCTTGGCGATGATCT (sugars lldddddldddldldll, PS)”, for which the target mRNA inhibition with MYH7 was 20% and 15%.

“CTTGGCAATGATCTCATCC (sugars ldddddllldddddlddll, PS)”: in the data set with MYH7, the target mRNA inhibition is 29% and 20%.

As for “GCATTCCTCAGACAAATC (sugars l2 d14 l2, PS)”, the target mRNA inhibition with ANGPTL2 (5 µM) came out at 43.6%; with ANGPTL2 (25 µM), 56.9%.

“CTTGGCAATGATCTCATCC (sugars lddddddlddlddldldll, PS)”: the target mRNA inhibition in the data set with MYH7 is 6% and -16%.

As for “CTTGGCAATGATCTCATCC (sugars ldddddllddddldlddll, PS)”, the target mRNA inhibition with MYH7 was 67% and 52%.

With “TCAGCTTGGCGATGATCT (sugars ldlddlddddddldldll, PS)”, the target mRNA inhibition with MYH7 is -25% and -42%.

Turning to “CCAGTTCCTGAAGAAGTTA (sugars l1 d15 l3, PS)”, the values for the target mRNA inhibition with ANGPTL2 (5 µM) and with ANGPTL2 (25 µM) were 27.8% and 30.1%, respectively.

In the case of “CTTGGCAATGATCTCATCC (sugars ldddddddldlldldldll, PS)”, in the data set with MYH7, the target mRNA inhibition was -7% and -17%.

Take “CAGCTTGGCGATGATCT (sugars lddlddddddldlddll, PS)”: the target mRNA inhibition in the data set with MYH7 was 11% and 15%.

Consider “CTTGGCAATGATCTCATCC (sugars lldlddddddddlddldll, PS)”, for which, in the data set with MYH7, the target mRNA inhibition was 38% and 23%.

Turning to “TTCTGGTAGTGGGCACAG (sugars l1 d15 l2, PS)”, the target mRNA inhibition in the data set with ANGPTL2 (5 µM) was determined as 36.8%; with ANGPTL2 (25 µM), 37.1%.

Regarding “GCAGCTCATTGTTGAGCA (sugars l1 d15 l2, PS)”, the values for the target mRNA inhibition in the data set with ANGPTL2 (5 µM) and in the data set with ANGPTL2 (25 µM) were -2.7% and -0.5%, respectively.

Consider “CAGCTTGGCGATGATCT (sugars l1 d2 l1 d11 l2, PS)”, for which the target mRNA inhibition with MYH7 was 27% and 2%.

“CAGCTTGGCGATGATCT (sugars ldddddddddlldldll, PS)”: the target mRNA inhibition in the data set with MYH7 was 47% and 30%.

“GTTCTCCAGGGAAGTGTA (sugars l1 d15 l2, PS)”: the target mRNA inhibition with ANGPTL2 (5 µM) came to 47.4%; in the data set with ANGPTL2 (25 µM), 57.7%.

On to “CAAGAGGGAGGGGAGGACA (sugars l1 d16 l2, PS)”, for which the values for the target mRNA inhibition with ANGPTL2 (5 µM) and with ANGPTL2 (25 µM) were 36.8% and 42.9%, respectively.

Take “GAAATGTTATCTAATACT (sugars l4 d10 l4, PS)”: the target mRNA inhibition amounted to 34.5% in the data set with ANGPTL2 (5 µM) and 49% in the data set with ANGPTL2 (25 µM).

On to “CAGCTTGGCGATGATCT (sugars lddlldddddlldldll, PS)”, for which the target mRNA inhibition with MYH7 was 22% and 14%.

For the sequence “CTTGGCAATGATCTCATCC (sugars l3 d13 l3, PS)”, the target mRNA inhibition in the data set with MYH7 was 71% and 46%.

As for “CTAGATTTCTTTCAGTTTG (sugars l2 d14 l3, PS)”, the target mRNA inhibition is 62.7% and 67.4% with ANGPTL2 (5 µM); 67.5% and 77.3% with ANGPTL2 (25 µM).

Consider “CTTGGCAATGATCTCATCC (sugars l2 d10 l2 d2 l3, PS)”, for which, in the data set with MYH7, the target mRNA inhibition is 74% and 49%.

On to “CAGCTTGGCGATGATCT (sugars lddldldddddldddll, PS)”, for which, in the data set with MYH7, the target mRNA inhibition is 22% and 7%.

As for “AAGCATCATTGAAAATTC (sugars l4 d10 l4, PS)”, the target mRNA inhibition came to 75.9% in the data set with ANGPTL2 (5 µM) and 85.1% in the data set with ANGPTL2 (25 µM).
